Our source for the Kd values is ChEMBL document CHEMBL4699567, “hDM2 protein-binding peptides screened from stapled α-helical peptide phage display libraries with different types of staple linkers” (Bioorg Med Chem Lett, 2020).

As a reminder, the Kd is the free concentration of one partner at which half of the binding sites on the other are occupied at equilibrium, for simple one-to-one binding.

Starred links: 1 amine or outer side, 2 acyl side, 3 side chain; linkers in the order of their positions; H or OH if unused. Positions of bridges follow the written chain, without caps; N, C: chain ends. Residues, ends and D or L forms follow the SMILES beside them. *: point of attachment. 5FAM = O=C1OC2(c3ccc(O)cc3Oc3cc(O)ccc32)c2ccc(C(=O)*)cc21; CH2CONH(CH2)4NHCOCH2 = O=C(C[*:1])NCCCCNC(=O)C[*:2]

In test [1] the target is T1, E3 ubiquitin-protein ligase Mdm2 (Homo sapiens, UniProt Q00987). In words: Binding affinity to human MDM2 assessed as dissociation constant in presence of 50 uM p53 peptide by fluorescence polarization assay.
The target of test [2] is T1, E3 ubiquitin-protein ligase Mdm2. Nature of the test: Binding affinity to human MDM2 assessed as dissociation constant by fluorescence polarization assay. A general note: Fluorescence polarisation rises when a labelled molecule tumbles more slowly, as on binding a larger partner.

T1 sequence (Q00987 whole entry): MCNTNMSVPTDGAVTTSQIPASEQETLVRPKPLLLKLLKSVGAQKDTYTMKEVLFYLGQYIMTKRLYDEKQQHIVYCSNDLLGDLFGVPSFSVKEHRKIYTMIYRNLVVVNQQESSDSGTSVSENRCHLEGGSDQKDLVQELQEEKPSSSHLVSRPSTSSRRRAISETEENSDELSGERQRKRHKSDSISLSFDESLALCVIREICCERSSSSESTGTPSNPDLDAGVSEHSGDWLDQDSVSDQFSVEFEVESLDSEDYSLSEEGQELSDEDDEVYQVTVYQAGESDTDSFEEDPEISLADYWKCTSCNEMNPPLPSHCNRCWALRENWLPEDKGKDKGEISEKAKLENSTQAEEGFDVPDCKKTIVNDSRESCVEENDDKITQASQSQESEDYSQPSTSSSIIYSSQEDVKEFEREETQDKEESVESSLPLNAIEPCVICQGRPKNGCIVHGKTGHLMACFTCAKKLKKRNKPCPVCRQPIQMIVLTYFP

For `CSCC[C@H](NC(=O)[C@H](C)NC(=O)CN)C(=O)N[C@@H](CCC(=O)O)C(=O)N[C@H]1CSCC(=O)NCCCCNC(=O)CSC[C@@H](C(=O)N[C@@H](CCCCN)C(=O)N[C@@H](CCCCN)C(=O)N[C@@H](C)C(=O)NCC(=O)NCC(=O)NCC(=O)NCC(=O)N[C@@H](CCCCNC(=O)c2ccc3c(c2)C(=O)OC32c3ccc(O)cc3Oc3cc(O)ccc32)C(N)=O)NC(=O)[C@H](CCC(=O)O)NC(=O)[C@H](CCCCN)NC(=O)[C@H](CCC(=O)O)NC(=O)[C@H](CCCCN)NC(=O)[C@H](CC(C)C)NC(=O)[C@H](Cc2c[nH]c3ccccc23)NC1=O` (H-GAMECWLKEKECKKAGGGGK(5FAM)-NH2; linker 5-12 via CH2CONH(CH2)4NHCOCH2), the Kd in test [1] came out at 571 µM; in test [2], 178 µM.
For `CSCC[C@H](NC(=O)[C@H](C)NC(=O)CN)C(=O)N[C@@H](CCC(=O)O)C(=O)N[C@@H](CS)C(=O)N[C@@H](Cc1c[nH]c2ccccc12)C(=O)N[C@@H](CC(C)C)C(=O)N[C@@H](CCCCN)C(=O)N[C@@H](CCC(=O)O)C(=O)N[C@@H](CCCCN)C(=O)N[C@@H](CCC(=O)O)C(=O)N[C@@H](CS)C(=O)N[C@@H](CCCCN)C(=O)N[C@@H](CCC(N)=O)C(=O)N[C@@H](C)C(=O)NCC(=O)NCC(=O)NCC(=O)NCC(=O)N[C@@H](CCCCNC(=O)c1ccc2c(c1)C(=O)OC21c2ccc(O)cc2Oc2cc(O)ccc21)C(N)=O` (H-GAMECWLKEKECKQAGGGGK(5FAM)-NH2), the Kd in test [1] is 436 µM; in test [2] it was 195 µM.
On to `CSCC[C@H](NC(=O)[C@H](C)NC(=O)CN)C(=O)N[C@@H](CCC(=O)O)C(=O)N[C@H]1CSCC(=O)NCCCCNC(=O)CSC[C@@H](C(=O)N[C@@H](CCCCN)C(=O)N[C@@H](CCC(N)=O)C(=O)N[C@@H](C)C(=O)NCC(=O)NCC(=O)NCC(=O)NCC(=O)N[C@@H](CCCCNC(=O)c2ccc3c(c2)C(=O)OC32c3ccc(O)cc3Oc3cc(O)ccc32)C(N)=O)NC(=O)[C@H](CCC(=O)O)NC(=O)[C@H](CCCCN)NC(=O)[C@H](CCC(=O)O)NC(=O)[C@H](CCCCN)NC(=O)[C@H](CC(C)C)NC(=O)[C@H](Cc2c[nH]c3ccccc23)NC1=O` (H-GAMECWLKEKECKQAGGGGK(5FAM)-NH2; linker 5-12 via CH2CONH(CH2)4NHCOCH2), for which the Kd in test [2] amounted to 140 µM.
In the case of `CC[C@H](C)[C@H](NC(=O)[C@H](CCCCN)NC(=O)[C@H](CS)NC(=O)[C@H](CCC(=O)O)NC(=O)[C@H](CCC(N)=O)NC(=O)[C@H](CCC(=O)O)NC(=O)[C@H](CCCCN)NC(=O)[C@H](CC(C)C)NC(=O)[C@H](Cc1c[nH]c2ccccc12)NC(=O)[C@H](CS)NC(=O)[C@H](CCC(=O)O)NC(=O)[C@H](CCSC)NC(=O)[C@H](C)NC(=O)CN)C(=O)N[C@@H](C)C(=O)NCC(=O)NCC(=O)NCC(=O)NCC(=O)N[C@@H](CCCCNC(=O)c1ccc2c(c1)C(=O)OC21c2ccc(O)cc2Oc2cc(O)ccc21)C(N)=O` (H-GAMECWLKEQECKIAGGGGK(5FAM)-NH2), the Kd in test [1] was found to be 445 µM; in test [2] it was 116 µM.
Turning to `CC(C)C[C@H](NC(=O)[C@H](CCC(=O)O)NC(=O)[C@H](CCCCN)NC(=O)[C@H](CC(N)=O)NC(=O)[C@@H](NC(=O)[C@H](CS)NC(=O)[C@H](CCC(=O)O)NC(=O)[C@H](Cc1c[nH]c2ccccc12)NC(=O)[C@H](C)NC(=O)CN)[C@@H](C)O)C(=O)N[C@@H](Cc1c[nH]c2ccccc12)C(=O)N[C@@H](CS)C(=O)N[C@@H](CCCCN)C(=O)N[C@@H](CCC(N)=O)C(=O)N[C@@H](C)C(=O)NCC(=O)NCC(=O)NCC(=O)NCC(=O)N[C@@H](CCCCNC(=O)c1ccc2c(c1)C(=O)OC21c2ccc(O)cc2Oc2cc(O)ccc21)C(N)=O` (H-GAWECTNKELWCKQAGGGGK(5FAM)-NH2), in test [2], the Kd was 553 µM.
